Results taken from patent US11446287B2, “Compounds and methods for EP300 or CBP modulation and indications therefor” (Opna Immuno-Oncology SA, priority 2019, dated 2022).

biological target: T1, Recombinant human BRD4 containing dual bromodomains (BRD4-BD12 (1-477)) (Homo sapiens, UniProt O60885); assay: BRD4 Alphascreen binding assay
T1 construct: Recombinant human BRD4 containing dual bromodomains (BRD4-BD12 (1-477)); made in house; host or cells: E. coli BL21-CodonPlus (DE3), modified pET vector
In short: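 AlphaScreen proximity between Ni-chelate-bound BRD4-BD12 (1-477) and streptavidin-captured H4 K5/K8/K12/K16-acetyl peptide measured after 1 h room-temperature compound incubation and 30 min with 7.5 μg/ml beads. Buffer: 50 mM HEPES pH 7.5, 50 mM NaCl, 0.01% BSA, 0.01% Triton X-100; data plate-normalized and four-parameter fit for IC50.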

Compound | IC50
Cc1noc(C)c1-c1cnc2c(c1)c(-c1ccc(C(=O)O)cc1OC(F)(F)F)cn2-c1ccccc1F [P-0223, 4-(5-(3,5-dimethylisoxazol-4-yl)-1-(2-fluorophenyl)-1H-pyrrolo[2,3-b]pyridin-3-yl)-3-(trifluoromethoxy)benzoic acid] | 1 to 8 µM
CCOc1ccc(C(=O)O)cc1-n1cc(-c2ccccc2)c2ncc(-c3c(C)noc3C)cc21 [P-0225, 3-(6-(3,5-dimethylisoxazol-4-yl)-3-phenyl-1H-pyrrolo[3,2-b]pyridin-1-yl)-4-ethoxybenzoic acid] | 1 to 8 µM
Cc1noc(C)c1-c1cnc2c(-c3cc(C(=O)O)ccc3F)c(C(F)(F)F)n([C@@H](C)c3ccccn3)c2c1 [P-0238, (S)-3-(6-(3,5-dimethylisoxazol-4-yl)-1-(1-(pyridin-2-yl)ethyl)-2-(trifluoromethyl)-1H-pyrrolo[3,2-b]pyridin-3-yl)-4-fluorobenzoic acid] | 1 to 8 µM
Cc1noc(C)c1-c1cnc2c(c1)c(-c1ccnc(C(=O)O)c1)cn2C(c1ccccn1)C1CCCC1 (stereo not drawn) [P-0017, 4-(1-(cyclopentyl(pyridin-2-yl)methyl)-5-(3,5-dimethylisoxazol-4-yl)-1H-pyrrolo[2,3-b]pyridin-3-yl)picolinic acid] | 1 to 8 µM
CCOc1cc(C(=O)O)cc(F)c1-n1cc(-c2ccccc2)c2ncc(-c3c(C)noc3C)cc21 [P-0205, 4-(6-(3,5-dimethylisoxazol-4-yl)-3-phenyl-1H-pyrrolo[3,2-b]pyridin-1-yl)-3-ethoxy-5-fluorobenzoic acid] | 1 to 8 µM
Cc1noc(C)c1-c1cnc2c(-c3ccc(C(=O)O)cc3C#CC3CC3)cn([C@@H](C)c3ccccn3)c2c1 [P-0171, (S)-3-(cyclopropylethynyl)-4-(6-(3,5-dimethylisoxazol-4-yl)-1-(1-(pyridin-2-yl)ethyl)-1H-pyrrolo[3,2-b]pyridin-3-yl)benzoic acid] | 0.0001 to 1 µM
Cc1noc(C)c1-c1cnc2c(c1)c(-c1ccc(C(=O)O)cc1C1CC1)cn2[C@@H](C)c1ccccn1 [P-0181, (S)-3-cyclopropyl-4-(5-(3,5-dimethylisoxazol-4-yl)-1-(1-(pyridin-2-yl)ethyl)-1H-pyrrolo[2,3-b]pyridin-3-yl)benzoic acid] | 8 to 1000 µM
CCOc1cc(C(=O)O)cc(OCC)c1-n1cc(-c2cccc(Cl)c2)c2ncc(-c3c(C)noc3C)cc21 [P-0185, 4-(3-(3-chlorophenyl)-6-(3,5-dimethylisoxazol-4-yl)-1H-pyrrolo[3,2-b]pyridin-1-yl)-3,5-diethoxybenzoic acid] | 1 to 8 µM
Cc1cc(C(=O)O)ccc1-c1c(C(F)(F)F)n([C@@H](C)c2ccccn2)c2cc(-c3c(C)noc3C)cnc12 [P-0235, (S)-4-(6-(3,5-dimethylisoxazol-4-yl)-1-(1-(pyridin-2-yl)ethyl)-2-(trifluoromethyl)-1H-pyrrolo[3,2-b]pyridin-3-yl)-3-methylbenzoic acid] | 8 to 1000 µM
Cc1noc(C)c1-c1cnc2c(c1)c(-c1ccc(C(=O)O)cc1OC(C)C)cn2C(C1CC1)C1CC1 [P-0213, 4-(1-(dicyclopropylmethyl)-5-(3,5-dimethylisoxazol-4-yl)-1H-pyrrolo[2,3-b]pyridin-3-yl)-3-isopropoxybenzoic acid] | 8 to 1000 µM
CCOc1cc(C(=O)O)cc(OCC)c1-n1cc(-c2cnn(C)c2)c2ncc(-c3c(C)noc3C)cc21 [P-0195, 4-(6-(3,5-dimethylisoxazol-4-yl)-3-(1-methyl-1H-pyrazol-4-yl)-1H-pyrrolo[3,2-b]pyridin-1-yl)-3,5-diethoxybenzoic acid] | 1 to 8 µM
CCOc1cc(C(=O)O)cc(OCC)c1-n1cc(-c2ccc(C#N)cc2F)c2ncc(-c3c(C)noc3C)cc21 [P-0217, 4-(3-(4-cyano-2-fluorophenyl)-6-(3,5-dimethylisoxazol-4-yl)-1H-pyrrolo[3,2-b]pyridin-1-yl)-3,5-diethoxybenzoic acid] | 1 to 8 µM
Cc1noc(C)c1-c1cnc2c(c1)c(-c1ccc(C(=O)O)cc1OC(F)(F)F)cn2C1CCC(F)(F)CC1 [P-0227, 4-(1-(4,4-difluorocyclohexyl)-5-(3,5-dimethylisoxazol-4-yl)-1H-pyrrolo[2,3-b]pyridin-3-yl)-3-(trifluoromethoxy)benzoic acid] | 1 to 8 µM
Cc1noc(C)c1-c1cnc2c(c1)c(-c1ccc(F)c(C(=O)O)c1)cn2C(c1ccccn1)C1CCCC1 (stereo not drawn) [P-0016, 5-(1-(cyclopentyl(pyridin-2-yl)methyl)-5-(3,5-dimethylisoxazol-4-yl)-1H-pyrrolo[2,3-b]pyridin-3-yl)-2-fluorobenzoic acid] | 1 to 8 µM
Cc1noc(C)c1-c1cnc2c(c1)c(-c1ccc(C(=O)O)cc1OC(F)(F)F)cn2C(CC#N)C1CC1 (stereo not drawn) [P-0199, 4-(1-(2-cyano-1-cyclopropylethyl)-5-(3,5-dimethylisoxazol-4-yl)-1H-pyrrolo[2,3-b]pyridin-3-yl)-3-(trifluoromethoxy)benzoic acid] | 8 to 1000 µM
COc1cc(C(=O)O)ccc1-c1c(C(F)(F)F)n([C@@H](C)c2ccccn2)c2cc(-c3c(C)noc3C)cnc12 [P-0236, (S)-4-(6-(3,5-dimethylisoxazol-4-yl)-1-(1-(pyridin-2-yl)ethyl)-2-(trifluoromethyl)-1H-pyrrolo[3,2-b]pyridin-3-yl)-3-methoxybenzoic acid] | 1 to 8 µM
Cc1noc(C)c1-c1cnc2c(-c3ccccc3)cn(-c3ccc(C(=O)O)cc3OC(F)(F)F)c2c1 [P-0196, 4-(6-(3,5-dimethylisoxazol-4-yl)-3-phenyl-1H-pyrrolo[3,2-b]pyridin-1-yl)-3-(trifluoromethoxy)benzoic acid] | 1 to 8 µM
Cc1ccncc1-n1cc(-c2ccc(C(=O)O)cc2OC(F)(F)F)c2cc(-c3c(C)noc3C)cnc21 [P-0189, 4-(5-(3,5-dimethylisoxazol-4-yl)-1-(4-methylpyridin-3-yl)-1H-pyrrolo[2,3-b]pyridin-3-yl)-3-(trifluoromethoxy)benzoic acid] | 8 to 1000 µM
Cc1noc(C)c1-c1cnc2c(c1)c(-c1ccc(C(=O)O)cc1OC(F)(F)F)cn2-c1ncccc1C(F)(F)F [P-0180, 4-(5-(3,5-dimethylisoxazol-4-yl)-1-(3-(trifluoromethyl)pyridin-2-yl)-1H-pyrrolo[2,3-b]pyridin-3-yl)-3-(trifluoromethoxy)benzoic acid] | 8 to 1000 µM
Cc1noc(C)c1-c1cnc2c(c1)c(-c1ccc(C(=O)O)cc1OC(F)(F)F)cn2-c1cnccc1Cl [P-0177, 4-(1-(4-chloropyridin-3-yl)-5-(3,5-dimethylisoxazol-4-yl)-1H-pyrrolo[2,3-b]pyridin-3-yl)-3-(trifluoromethoxy)benzoic acid] | 8 to 1000 µM
Cc1cnccc1-n1cc(-c2ccc(C(=O)O)cc2OC(F)(F)F)c2cc(-c3c(C)noc3C)cnc21 [P-0211, 4-(5-(3,5-dimethylisoxazol-4-yl)-1-(3-methylpyridin-4-yl)-1H-pyrrolo[2,3-b]pyridin-3-yl)-3-(trifluoromethoxy)benzoic acid] | 1 to 8 µM
Cc1noc(C)c1-c1cnc2c(c1)c(-c1c(Cl)cc(C(=O)O)cc1OC(F)(F)F)cn2C(C1CC1)C1CC1 [P-0198, 3-chloro-4-(1-(dicyclopropylmethyl)-5-(3,5-dimethylisoxazol-4-yl)-1H-pyrrolo[2,3-b]pyridin-3-yl)-5-(trifluoromethoxy)benzoic acid] | 8 to 1000 µM
CCOc1cc(C(=O)O)cc(OC(C)C)c1-c1cn([C@@H](C)c2ccccn2)c2ncc(-c3c(C)noc3C)cc12 [P-0174, (S)-4-(5-(3,5-dimethylisoxazol-4-yl)-1-(1-(pyridin-2-yl)ethyl)-1H-pyrrolo[2,3-b]pyridin-3-yl)-3-ethoxy-5-isopropoxybenzoic acid] | 8 to 1000 µM
Cc1noc(C)c1-c1cnc2c(c1)c(-c1ccc(C(=O)O)cc1OC(F)(F)F)cn2-c1ccc(F)cc1F [P-0232, 4-(1-(2,4-difluorophenyl)-5-(3,5-dimethylisoxazol-4-yl)-1H-pyrrolo[2,3-b]pyridin-3-yl)-3-(trifluoromethoxy)benzoic acid] | 1 to 8 µM
Cc1noc(C)c1-c1cnc2c(c1)c(-c1ccc(C(=O)O)cc1OC(F)(F)F)cn2-c1ncccc1C#CC1CC1 [P-0216, 4-(1-(3-(cyclopropylethynyl)pyridin-2-yl)-5-(3,5-dimethylisoxazol-4-yl)-1H-pyrrolo[2,3-b]pyridin-3-yl)-3-(trifluoromethoxy)benzoic acid] | 8 to 1000 µM
Cc1noc(C)c1-c1cnc2c(c1)c(-c1ccc(C(=O)O)cc1OC(F)(F)F)c(C)n2-c1ccccn1 [P-0228, 4-(5-(3,5-dimethylisoxazol-4-yl)-2-methyl-1-(pyridin-2-yl)-1H-pyrrolo[2,3-b]pyridin-3-yl)-3-(trifluoromethoxy)benzoic acid] | 1 to 8 µM
Cc1noc(C)c1-c1cnc2c(c1)c(-c1ccc(C(=O)O)cc1OC(F)(F)F)cn2-c1ncccc1F [P-0182, 4-(5-(3,5-dimethylisoxazol-4-yl)-1-(3-fluoropyridin-2-yl)-1H-pyrrolo[2,3-b]pyridin-3-yl)-3-(trifluoromethoxy)benzoic acid] | 1 to 8 µM
Cc1noc(C)c1-c1cnc2c(-c3ccc(F)cc3F)cn(-c3ccc(C(=O)O)cc3OC(F)(F)F)c2c1 [P-0229, 4-(3-(2,4-difluorophenyl)-6-(3,5-dimethylisoxazol-4-yl)-1H-pyrrolo[3,2-b]pyridin-1-yl)-3-(trifluoromethoxy)benzoic acid] | 1 to 8 µM
Cc1noc(C)c1-c1cnc2c(c1)c(-c1cccc(C(=O)O)c1)cn2C(c1ccccn1)C1CCCC1 (stereo not drawn) [P-0015, 3-(1-(cyclopentyl(pyridin-2-yl)methyl)-5-(3,5-dimethylisoxazol-4-yl)-1H-pyrrolo[2,3-b]pyridin-3-yl)benzoic acid] | 1 to 8 µM
CCOc1cc(C(=O)O)cc(OCC)c1-n1cc(-c2ccc(C3CC3)nc2)c2ncc(-c3c(C)noc3C)cc21 [P-0192, 4-(3-(6-cyclopropylpyridin-3-yl)-6-(3,5-dimethylisoxazol-4-yl)-1H-pyrrolo[3,2-b]pyridin-1-yl)-3,5-diethoxybenzoic acid] | 1 to 8 µM
